# Data as given in PMC11121064 (International Journal of Molecular Sciences, 2024).
# Read-outs that look alike come from different tables or passages of the source.
# Key:
# red blood cells (RBCs) = assay: Erythrotoxicity (RBC hemolysis, lysis assay); type: cell-based, human; conditions: 24 h, 50 µmol/L and 100 µmol/L, 2% RBC suspension
# Description: Their erythrotoxicity was also assessed. Red blood cells are model cells used in basic studies of the biocompatibility of new compounds and some medical materials. […] The amount of hemoglobin released from damaged cells was measured using a spectrophotometer.
# Erythrotoxicity was assessed in a 2% erythrocyte suspension following 1 h and 24 h of incubation with the tested compounds.
# (§1) The plasma was used for the hemostasis tests.
# The influence of the compounds on the red blood cells (RBCs)’ membrane integrity was assessed using a lysis assay, as described previously. Briefly, the tested compounds (1 to 100 μmol/L) were incubated in a 2% RBC suspension in 0.9% NaCl at 37 °C for 24 h; solvent was used as the control. The samples were then centrifuged at 3000× g for 10 min, and the absorbance of the supernatant was determined at 550 nm (maximum absorbance for hemoglobin). The results are presented as the degree of hemolysis, i.e., the percentage of released hemoglobin. A sample containing Triton X-100 was used as the positive control (100% hemolysis), whereas a sample of saline solution represented spontaneous hemolysis of the RBCs (control).
# [1] = system: extrinsic coagulation pathway; assay: Prothrombin time (PT) and INR in human citrated plasma
# Description: The first stage assessed the changes in plasma hemostasis occurring under the influence of the five test compounds. Plasma was incubated with the tested compounds and ligands at six different concentrations ranging from 0.5 to 100 µmol/L. The plasma was obtained from five different volunteers. To evaluate the impact on the extrinsic coagulation pathway, the prothrombin time (PT) was determined in human citrated plasma, expressed in seconds and as the international normalized ratio (INR) (Figure 6 and Figure 7).
# as §1
# The results are presented as means ± standard deviation (SD).
# [2] = system: human BJ fibroblast cell line; assay: MTT reduction assay, BJ fibroblasts; type: cell-based; conditions: 72 h
# Description: (§2) The cytotoxic activity was measured against the melanoma A375 tumor cell line (ECACC) and the human BJ fibroblast cell line (ATCC) using an MTT reduction assay. The selectivity index (SI) was calculated using the following formula: SI = IC50 (BJ)/ IC50 (A375).
# (§3) The A375 cell line was purchased from the European Collection of Authenticated Cell Cultures (ECACC, Salisbury, UK) and the BJ human fibroblast cell line from the American Type Culture Collection (ATCC, Manassas, VA, USA). All the cell lines were grown as a monolayer in standard conditions: 37 °C, 100% humidity, under an atmosphere of 5% CO2. The A375 cells were cultured in Dulbecco’s Modified Eagle Medium supplemented with 15% fetal calf serum and 50 IU/mL penicillin/streptomycin. The BJ cell line was grown in EMEM with EBSS, NEAA and sodium pyruvate with L-Glutamine supplemented, 10% fetal bovine serum and 50 IU/mL penicillin/streptomycin.
# (§4) Next, the cells were seeded in 96-well plates at a density of 5000 cells per well and incubated overnight to reach the logarithmic growth phase. […] After 72 h, 10 µL of MTT solution (5 g/L) was added into each well and incubated for an additional four hours. Subsequently, the medium was removed, and 100 µL of dimethyl sulfoxide (DMSO) was added into each well. The absorbance was then measured at 570 nm using a SPECTROstar Nano microplate reader (BMG Biotech Inc., Cary, NC, USA)/Tecan Spark 10M. The mean value from three independent BJ and A375 cell cultures was taken to calculate the cell viability, expressed as a percentage of the control values, i.e., untreated cells assumed as 100%.
# [3] = system: clot formation and fibrinolysis in human citrate plasma; assay: Clot formation and fibrinolysis test (CL-test); conditions: for CLAUC overall potential for clot formation and fibrinolysis / Fmax maximum clotting / Fvo initial plasma clotting velocity / Lmax maximum lysis / Lvo initial clot fibrinolysis velocity / Sc area under the curve of stable clot formation / Sf area under the fibrinolysis curve / Sr area under the clot formation curve / Tc clot stabilization time / Tf plasma clotting time / Tl fibrinolysis time / Tt thrombin time: mean, n = 3
# Description: Following this, the impact of the tested complex compounds and their ligands on the overall clot formation and fibrinolysis potential (CLAUC) and individual kinetic parameters was assessed using the CL-test. The analysis was performed using plasma from three different donors.
# The blood samples used were residual materials from routine diagnostic studies, destined for disposal as medical waste. […] Platelet-poor plasma (PPP) and red blood cells were obtained using centrifugation at 3000× g for 10 min at room temperature using a Mikro 22R centrifuge (Hettich Zentrifugen, Tuttlingen, Germany). The plasma was used for the hemostasis tests. Before use, the centrifuged erythrocyte mass was washed three times with physiological saline solution to remove the plasma protein residues and other blood cells.
# The influence of the compounds on the overall hemostasis potential was determined using the CL-test through continuous measurement of changes in optical transmittance, as described previously [53, 54]. The experiments were conducted using three-fold diluted human citrate plasma, t-PA and thrombin. […] The results are presented as means ± SD (n = 3). The curves were used to determine the kinetic parameters of clot formation, stabilization and fibrinolysis using dedicated software [51]. The following parameters of clot formation were determined: Tt—thrombin time (s), Fmax—maximum clotting (%T), Tf—plasma clotting time (s), Fvo—initial plasma clotting velocity (%T/min), Sr—area under the clot formation curve (%Txmin). The parameters of the clot stabilization phase comprised Tc—clot stabilization time (s) and Sc—area under the curve of stable clot formation (%Txmin). The parameters of fibrinolysis comprised Lmax—maximum lysis (%T), Tl—fibrinolysis time (s), Lvo—initial clot fibrinolysis velocity (%T/min) and Sf—area under the fibrinolysis curve (%Txmin). Additionally, the overall potential for clot formation and fibrinolysis, i.e., CLAUC (%Txmin), was also estimated.
# [4] = system: melanoma A375 tumor cell line; assay: MTT reduction assay, A375 melanoma cells; type: cell-based, human
# Description: as §2
# as §3, with “The A375 cells were cultured in Dulbecco’s Modified Eagle Medium supplemented with 15% fetal calf serum and 50 IU/mL penicillin/streptomycin.” left out
# as §4
# [5] = system: intrinsic coagulation pathway; conditions: 100 µmol/L (highest concentration), mean within reference range 26.7–40.0 s
# Description: To evaluate the intrinsic coagulation pathway, the plasma was mixed with the tested compounds at the same concentrations as in the PT analysis, and the activated partial thromboplastin time (APTT) was measured.
# as §1
# The PT, APTT and TT were measured using a Coag Chrom 3003 coagulometer (Bio-Ksel, Grudziadz, Poland) according to the manufacturer’s instructions, using commercially available reagents (Bio-Ksel, Grudziadz, Poland). The experiment was conducted as three independent experiments (in duplicate); distilled water or methanol was used as the control.
smiles,measurement,setting,value
"O=S(=O)([O-])[O-].[Ag+].[Ag+] [Ag2SO4, reference compound]",erythrocyte hemolysis,red blood cells (RBCs),> 60%
same,effect on prothrombin time (PT),"[1]; 100 µmol/L, human citrated plasma",significantly lengthened
"O=[N+]([O-])[O-].[Ag+] [AgNO3, silver(I) nitrate]",IC50,[2],> 100 µM
same,effect on CLAUC and kinetic parameters of clot formation and lysis,[3]; entire concentration range 0.5–100 µmol/L,no significant differences
same,erythrocyte hemolysis,red blood cells (RBCs),> 60%
same,effect on A375 cell viability,[4]; 72 h of exposure,dose-dependent reduction
same,IC50,"[4]; MTT, 72 h",11.1 ± 0.8 µM
"Cc1ncc([N+](=O)[O-])n1CCO.Cc1ncc([N+](=O)[O-])n1CCO.Cc1ncc([N+](=O)[O-])n1CCO.Cc1ncc([N+](=O)[O-])n1CCO.O=S(=O)([O-])[O-].[Ag+].[Ag+] [[(MTZ)2Ag]2SO4, metronidazole silver(I) sulfate]",CLAUC overall potential for clot formation and fibrinolysis,[3]; 0.5 µmol/L,348.3 %*min
same,Fmax maximum clotting,[3]; 0.5 µmol/L,70.6%
same,Fvo initial plasma clotting velocity,[3]; 0.5 µmol/L,160.0 %/min
same,Lmax maximum lysis,[3]; 0.5 µmol/L,69.8%
same,Lvo initial clot fibrinolysis velocity,[3]; 0.5 µmol/L,20.3 %/min
same,Sc area under the curve of stable clot formation,[3]; 0.5 µmol/L,165.1 %*min
same,Sf area under the fibrinolysis curve,[3]; 0.5 µmol/L,135.9 %*min
same,Sr area under the clot formation curve,[3]; 0.5 µmol/L,47.3 %*min
same,Tc clot stabilization time,[3]; 0.5 µmol/L,144.3 s
same,Tf plasma clotting time,[3]; 0.5 µmol/L,59.1 s
same,Tl fibrinolysis time,[3]; 0.5 µmol/L,196.7 s
same,Tt thrombin time,[3]; 0.5 µmol/L,20.1 s
same,CLAUC overall potential for clot formation and fibrinolysis,[3]; 1.0 µmol/L,417.7 %*min
same,Fmax maximum clotting,[3]; 1.0 µmol/L,73.8%
same,Fvo initial plasma clotting velocity,[3]; 1.0 µmol/L,181.0 %/min
same,Lmax maximum lysis,[3]; 1.0 µmol/L,73.5%
same,Lvo initial clot fibrinolysis velocity,[3]; 1.0 µmol/L,19.8 %/min
same,Sc area under the curve of stable clot formation,[3]; 1.0 µmol/L,207.8 %*min
same,Sf area under the fibrinolysis curve,[3]; 1.0 µmol/L,157.6 %*min
same,Sr area under the clot formation curve,[3]; 1.0 µmol/L,52.4 %*min
same,Tc clot stabilization time,[3]; 1.0 µmol/L,174.3 s
same,Tf plasma clotting time,[3]; 1.0 µmol/L,61.2 s
same,Tl fibrinolysis time,[3]; 1.0 µmol/L,226.3 s
same,Tt thrombin time,[3]; 1.0 µmol/L,20.5 s
same,CLAUC overall potential for clot formation and fibrinolysis,[3]; 5.0 µmol/L,411.1 %*min
same,Fmax maximum clotting,[3]; 5.0 µmol/L,78.6%
same,Fvo initial plasma clotting velocity,[3]; 5.0 µmol/L,212.3 %/min
same,Lmax maximum lysis,[3]; 5.0 µmol/L,77.9%
same,Lvo initial clot fibrinolysis velocity,[3]; 5.0 µmol/L,24.8 %/min
same,Sc area under the curve of stable clot formation,[3]; 5.0 µmol/L,210.7 %*min
same,Sf area under the fibrinolysis curve,[3]; 5.0 µmol/L,155.5 %*min
same,Sr area under the clot formation curve,[3]; 5.0 µmol/L,44.8 %*min
same,Tc clot stabilization time,[3]; 5.0 µmol/L,166.7 s
same,Tf plasma clotting time,[3]; 5.0 µmol/L,50.2 s
same,Tl fibrinolysis time,[3]; 5.0 µmol/L,204.7 s
same,Tt thrombin time,[3]; 5.0 µmol/L,19.7 s
same,CLAUC overall potential for clot formation and fibrinolysis,[3]; 10.0 µmol/L,406.3 %*min
same,Fmax maximum clotting,[3]; 10.0 µmol/L,75.7%
same,Fvo initial plasma clotting velocity,[3]; 10.0 µmol/L,178.3 %/min
same,Lmax maximum lysis,[3]; 10.0 µmol/L,75.0%
same,Lvo initial clot fibrinolysis velocity,[3]; 10.0 µmol/L,21.5 %/min
same,Sc area under the curve of stable clot formation,[3]; 10.0 µmol/L,203.7 %*min
same,Sf area under the fibrinolysis curve,[3]; 10.0 µmol/L,156.2 %*min
same,Sr area under the clot formation curve,[3]; 10.0 µmol/L,46.4 %*min
same,Tc clot stabilization time,[3]; 10.0 µmol/L,166.7 s
same,Tf plasma clotting time,[3]; 10.0 µmol/L,55.0 s
same,Tl fibrinolysis time,[3]; 10.0 µmol/L,208.3 s
same,Tt thrombin time,[3]; 10.0 µmol/L,20.7 s
same,CLAUC overall potential for clot formation and fibrinolysis,[3]; 50.0 µmol/L,421.1 %*min
same,Fmax maximum clotting,[3]; 50.0 µmol/L,76.9%
same,Fvo initial plasma clotting velocity,[3]; 50.0 µmol/L,159.6 %/min
same,Lmax maximum lysis,[3]; 50.0 µmol/L,74.3%
same,Lvo initial clot fibrinolysis velocity,[3]; 50.0 µmol/L,21.7 %/min
same,Sc area under the curve of stable clot formation,[3]; 50.0 µmol/L,184.0 %*min
same,Sf area under the fibrinolysis curve,[3]; 50.0 µmol/L,175.2 %*min
same,Sr area under the clot formation curve,[3]; 50.0 µmol/L,47.5 %*min
same,Tc clot stabilization time,[3]; 50.0 µmol/L,158.7 s
same,Tf plasma clotting time,[3]; 50.0 µmol/L,58.4 s
same,Tl fibrinolysis time,[3]; 50.0 µmol/L,200.7 s
same,Tt thrombin time,[3]; 50.0 µmol/L,20.7 s
same,CLAUC overall potential for clot formation and fibrinolysis,[3]; 100.0 µmol/L,390.3 %*min
same,Fmax maximum clotting,[3]; 100.0 µmol/L,72.3%
same,Fvo initial plasma clotting velocity,[3]; 100.0 µmol/L,159.3 %/min
same,Lmax maximum lysis,[3]; 100.0 µmol/L,72.0%
same,Lvo initial clot fibrinolysis velocity,[3]; 100.0 µmol/L,22.1 %/min
same,Sc area under the curve of stable clot formation,[3]; 100.0 µmol/L,194.4 %*min
same,Sf area under the fibrinolysis curve,[3]; 100.0 µmol/L,145.2 %*min
same,Sr area under the clot formation curve,[3]; 100.0 µmol/L,50.8 %*min
same,Tc clot stabilization time,[3]; 100.0 µmol/L,166.3 s
same,Tf plasma clotting time,[3]; 100.0 µmol/L,62.6 s
same,Tl fibrinolysis time,[3]; 100.0 µmol/L,219.7 s
same,Tt thrombin time,[3]; 100.0 µmol/L,20.5 s
same,prolongation of PT and INR beyond the reference range,"[1]; up to 100 µmol/L, reference PT 9.7–14.6 s, INR 0.8–1.2",do not cause pathological prolongation
same,effect on APTT,[5]; listed as metronidazole complex with Ag2SO4,significantly prolonged
same,effect on APTT,[5]; listed as metronidazole with Ag2SO4,statistically significant prolongation
